Values quoted from earlier work, collected in patent US20020131987A1, “METHOD FOR ENHANCING STABLE CELLULAR CREATINE CONCENTRATION” (priority 1997, published 2002).

Columns and labels:
[1] = not given; remark: listed apart in the source
[2] = not given; remark: listed apart in the source
[3] = not given; remark: listed apart in the source
[4] = not given; remark: listed apart in the source

| Structure (SMILES) | decomposition in the alimentary tract (after oral administration, no appreciable increase in urinary urea or ammonia) | absorption from the alimentary tract (oral administration) | formation of creatinine in acid solution ([1]; acid solution) | time for conversion of creatine to creatinine ([1]; acidic aqueous solution) | creatine lost from the cell ([2]; 70 kg male) | loss of creatine from skeletal muscle ([2]; human skeletal muscle) | reaction to litmus [3] | formation of creatinine in aqueous solution ([1]; dissolved in an aqueous solution) | volume of alcohol in which one gram dissolves ([4]; alcohol) | volume of water in which one gram dissolves ([4]; water) [mL] |
| --- | --- | --- | --- | --- | --- | --- | --- | --- | --- | --- |
| CN(CC(=O)O)C(=N)N [creatine] | not decomposed | completely absorbed | complete | a number of hours | approximately 2 grams per day | about 3 % per day |  |  |  |  |
| CN(CC(=O)O)C(=N)N.O [creatine monohydrate] |  |  |  |  |  |  | neutral | creatinine is formed | about 9 liters | 75 |
